# Read-outs that look alike come from different tables or passages of the source.
# Test: 14-day oral gavage toxicokinetic study in rats
# Format: in vivo
# Settings: female, rat, plasma, po; for half-life: read-out: t½ (converted); for concentration at 0.5 h / concentration at 2 h / concentration at 4 h / concentration at 8 h / concentration at 12 h / concentration at 24 h / concentration at 1 h / concentration at […]: rats
# Experimental: Plasma was obtained from blood samples collected from rats in a composite sampling scheme, with 3 samples collected per sex, per dose, at each target collection time, as illustrated in Table 21 to Table 25. Samples were collected from the vehicle control group on Day 1 and Day 14 at 3 hour after administration. […] Blood samples were collected in tubes containing K3EDTA as an anticoagulant and placed on ice until processed to plasma via centrifugation. Samples were stored frozen at −80° C. until shipment to the bioanalytical laboratory for analysis.
# The following parameters were determined:
# Cmax: Maximum observed plasma concentration (ng/mL).
# A value of 0 ng/mL was assigned to all values below the lower limit of quantitation (BLQ, <10.0 ng/mL).
# AUC(0-inf): Area under the plasma concentration vs. time curve extrapolated from 0 to infinity (ng*h/mL), calculated as AUC(0-t)+AUC(t-inf) where AUC(t-inf) is calculated as last measurable concentration (CLast) divided by ke, where ke is the elimination rate constant determined by linear regression of the last three analytically measured points on the log plasma concentration vs. time curve. The selection criteria of the data points for inclusion in the calculation of ke required that at least three data points representing the terminal phase (after Tmax) were regressed and that R2≧0.850 when rounded.
# CL: Clearance (L/h/kg), calculated as the dose divided by AUC(0-t).
# Vd: Volume of distribution (L/kg), calculated as dose divided by the product of ke and AUC(0-inf).
# Vdss: Steady state volume of distribution (L/kg), calculated as clearance […] mean residence time, where mean residence time is calculated as the area under the first moment curve divided by AUC(0-t).
# t½: Elimination half-life (h), calculated as ln(2)/ke, where ke is the elimination rate constant determined by linear regression. Half-life was defined as not determined if regression criteria (specified in AUC(0-inf) above) were not met.
# Cmax/Dose: Normalized Cmax, calculated as Cmax divided by total dose.
# AUC/Dose: Normalized AUC, calculated as AUC(0-t) divided by total dose.
# ii. Statistical Analysis Mean and standard deviation (SD) were calculated in Watson. Values of BLQ were assigned a value of 0 ng/mL for mean calculations. Concentration values and derived TK parameters were reported to three significant figures.
# [1] = 5 mg/kg, oral 5 mg/kg, Study Day 14, Female
# [2] = 15 mg/kg, oral 15 mg/kg, Study Day 1, Female
# [3] = 15 mg/kg, oral 15 mg/kg, Study Day 14, Female
compound,measurement,setting,value
"CN1CCN(c2ccc(Nc3ncc4cc5n(c4n3)C3(CCCCC3)CNC5=O)nc2)CC1 [Compound 1, 2′-((5-(4-methylpiperazin-1-yl)pyridin-2-yl)amino)-7′,8′-dihydro-6′H-spiro[cyclohexane-1,9′-pyrazino[1′,2′:1,5]pyrrolo[2,3-d]pyrimidin]-6′-one]",Tmax,[1],1 h
same,half-life,[1],4.41 h
same,concentration at 0.5 h,"15 mg/kg, Individual Compound 1 Plasma Concentration, daily oral 15 mg/kg, Day 1, Female, 0.5 h",1050 ng/mL
same,concentration at 2 h,"15 mg/kg, Individual Compound 1 Plasma Concentration, daily oral 15 mg/kg, Day 1, Female, 2 h",1820 ng/mL
same,concentration at 4 h,"15 mg/kg, Individual Compound 1 Plasma Concentration, daily oral 15 mg/kg, Day 1, Female, 4 h",1750 ng/mL
same,concentration at 8 h,"15 mg/kg, Individual Compound 1 Plasma Concentration, daily oral 15 mg/kg, Day 1, Female, 8 h",1250 ng/mL
same,concentration at 12 h,"15 mg/kg, Individual Compound 1 Plasma Concentration, daily oral 15 mg/kg, Day 1, Female, 12 h",1010 ng/mL
same,concentration at 24 h,"15 mg/kg, Individual Compound 1 Plasma Concentration, daily oral 15 mg/kg, Day 1, Female, 24 h",63.9 ng/mL
same,concentration at 0.5 h,"15 mg/kg, Individual Compound 1 Plasma Concentration, daily oral 15 mg/kg, Day 14, Female, 0.5 h",908 ng/mL
same,concentration at 1 h,"15 mg/kg, Individual Compound 1 Plasma Concentration, daily oral 15 mg/kg, Day 14, Female, 1 h",1410 ng/mL
same,concentration at 4 h,"15 mg/kg, Individual Compound 1 Plasma Concentration, daily oral 15 mg/kg, Day 14, Female, 4 h",1580 ng/mL
same,concentration at 8 h,"15 mg/kg, Individual Compound 1 Plasma Concentration, daily oral 15 mg/kg, Day 14, Female, 8 h",996 ng/mL
same,concentration at 12 h,"15 mg/kg, Individual Compound 1 Plasma Concentration, daily oral 15 mg/kg, Day 14, Female, 12 h",1060 ng/mL
same,concentration at 24 h,"15 mg/kg, Individual Compound 1 Plasma Concentration, daily oral 15 mg/kg, Day 14, Female, 24 h",106 ng/mL
same,concentration at […],"15 mg/kg, Individual Compound 1 Plasma Concentration, daily oral 15 mg/kg, Day 14, Female, […]",117 ng/mL
same,concentration at 0.5 h,"15 mg/kg, Mean Compound 1 Plasma Concentration, oral 15 mg/kg, Day 1, 0.5 h, Female",1180 ng/mL
same,concentration at 1 h,"15 mg/kg, Mean Compound 1 Plasma Concentration, oral 15 mg/kg, Day 1, 1 h, Female",1530 ng/mL
same,concentration at 2 h,"15 mg/kg, Mean Compound 1 Plasma Concentration, oral 15 mg/kg, Day 1, 2 h, Female",1910 ng/mL
same,concentration at 4 h,"15 mg/kg, Mean Compound 1 Plasma Concentration, oral 15 mg/kg, Day 1, 4 h, Female",1690 ng/mL
same,concentration at 8 h,"15 mg/kg, Mean Compound 1 Plasma Concentration, oral 15 mg/kg, Day 1, 8 h, Female",1440 ng/mL
same,concentration at 12 h,"15 mg/kg, Mean Compound 1 Plasma Concentration, oral 15 mg/kg, Day 1, 12 h, Female",916 ng/mL
same,concentration at 24 h,"15 mg/kg, Mean Compound 1 Plasma Concentration, oral 15 mg/kg, Day 1, 24 h, Female",84.5 ng/mL
same,concentration at […],"15 mg/kg, Mean Compound 1 Plasma Concentration, oral 15 mg/kg, Day 1, […], Female",109 ng/mL
same,concentration at 0.5 h,"15 mg/kg, Mean Compound 1 Plasma Concentration, oral 15 mg/kg, Day 14, 0.5 h, Female",1170 ng/mL
same,concentration at 1 h,"15 mg/kg, Mean Compound 1 Plasma Concentration, oral 15 mg/kg, Day 14, 1 h, Female",1450 ng/mL
same,concentration at 2 h,"15 mg/kg, Mean Compound 1 Plasma Concentration, oral 15 mg/kg, Day 14, 2 h, Female",1490 ng/mL
same,concentration at 4 h,"15 mg/kg, Mean Compound 1 Plasma Concentration, oral 15 mg/kg, Day 14, 4 h, Female",1570 ng/mL
same,concentration at 8 h,"15 mg/kg, Mean Compound 1 Plasma Concentration, oral 15 mg/kg, Day 14, 8 h, Female",979 ng/mL
same,concentration at 12 h,"15 mg/kg, Mean Compound 1 Plasma Concentration, oral 15 mg/kg, Day 14, 12 h, Female",805 ng/mL
same,concentration at 24 h,"15 mg/kg, Mean Compound 1 Plasma Concentration, oral 15 mg/kg, Day 14, 24 h, Female",130 ng/mL
same,concentration at […],"15 mg/kg, Mean Compound 1 Plasma Concentration, oral 15 mg/kg, Day 14, […], Female",131 ng/mL
same,AUC(0-inf),[2],23700 ng·h/mL
same,AUC(0-t),[2],23200 ng·h/mL
same,Cmax,[2],1910 ng/mL
same,Tmax,[2],2 h
same,AUC(0-inf),[3],20800 ng·h/mL
same,AUC(0-t),[3],19800 ng·h/mL
same,Cmax,[3],1570 ng/mL
same,Tmax,[3],4 h
same,half-life,[3],5.24 h
same,concentration at 0.5 h,"30 mg/kg, Individual Compound 1 Plasma Concentration, daily oral 30 mg/kg, Day 1, Female, 0.5 h",2030 ng/mL
same,concentration at 1 h,"30 mg/kg, Individual Compound 1 Plasma Concentration, daily oral 30 mg/kg, Day 1, Female, 1 h",2500 ng/mL
same,concentration at 2 h,"30 mg/kg, Individual Compound 1 Plasma Concentration, daily oral 30 mg/kg, Day 1, Female, 2 h",3440 ng/mL
same,concentration at 4 h,"30 mg/kg, Individual Compound 1 Plasma Concentration, daily oral 30 mg/kg, Day 1, Female, 4 h",2570 ng/mL
same,concentration at 8 h,"30 mg/kg, Individual Compound 1 Plasma Concentration, daily oral 30 mg/kg, Day 1, Female, 8 h",2480 ng/mL
same,concentration at 12 h,"30 mg/kg, Individual Compound 1 Plasma Concentration, daily oral 30 mg/kg, Day 1, Female, 12 h",2000 ng/mL
same,concentration at 24 h,"30 mg/kg, Individual Compound 1 Plasma Concentration, daily oral 30 mg/kg, Day 1, Female, 24 h",310 ng/mL
same,concentration at […],"30 mg/kg, Individual Compound 1 Plasma Concentration, daily oral 30 mg/kg, Day 1, Female, […]",114 ng/mL
same,concentration at 0.5 h,"30 mg/kg, Individual Compound 1 Plasma Concentration, daily oral 30 mg/kg, Day 14, Female, 0.5 h",1450 ng/mL
same,concentration at 1 h,"30 mg/kg, Individual Compound 1 Plasma Concentration, daily oral 30 mg/kg, Day 14, Female, 1 h",2740 ng/mL
same,concentration at 2 h,"30 mg/kg, Individual Compound 1 Plasma Concentration, daily oral 30 mg/kg, Day 14, Female, 2 h",2170 ng/mL
same,concentration at 4 h,"30 mg/kg, Individual Compound 1 Plasma Concentration, daily oral 30 mg/kg, Day 14, Female, 4 h",2700 ng/mL
same,concentration at 8 h,"30 mg/kg, Individual Compound 1 Plasma Concentration, daily oral 30 mg/kg, Day 14, Female, 8 h",1970 ng/mL
same,concentration at 12 h,"30 mg/kg, Individual Compound 1 Plasma Concentration, daily oral 30 mg/kg, Day 14, Female, 12 h",2290 ng/mL
same,concentration at 24 h,"30 mg/kg, Individual Compound 1 Plasma Concentration, daily oral 30 mg/kg, Day 14, Female, 24 h",280 ng/mL

# Reference: patent US20160220569A1, “CDK4/6 Inhibitor Dosage Formulations For The Protection Of Hematopoietic Stem And Progenitor Cells During Chemotherapy” (G1 Therapeutics, Inc., priority 2015, published 2016)
